Results as given in patent US20260240925A1, “METHOD AND COMPOSITION FOR PREVENTING OR TREATING MYOPIA” (Tsubota Laboratory, Inc., priority 2022, published 2026).

Legend:
Assay type in all cases: in vivo, mouse
[1] = system: lens-induced myopia model mice; experiment: Test Example 3: mast cell stabilizer instillation in lens-induced myopia model; details: for progression of myopia: ocular instillation, minus-lens-induced myopia mouse model; for choroidal thinning (change in choroidal thickness) / myopic shift in refraction (change in refractive value) / ocular elongation (change in axial length): once daily ocular instillation, 3 weeks myopia induction, cromolyn 4% solution, pemirolast potassium 0.1% solution, vs PBS group
Method: (§1) The axial length, choroidal thickness, and refractivity of the mice in each group were measured. The axial length and the choroidal thickness were measured using spectral domain optical coherence tomography (Envisu R4310, manufactured by Leica). The refractivity was measured using an infrared photorefractor for mice (made by Professor Schaeffel, University of Tubingen).
To verify the inhibitory effect of mast cell stabilizer instillation on myopia progression, a lens-induced myopia model was employed, wherein myopia was induced in mice by fitting the mice with minus lenses. During the myopia induction period, either cromolyn solution (4% solution) or pemirolast potassium (0.1% solution) was administered once daily by means of ocular instillation.
Following the test method described above, the axial length, refractive value, and choroidal thickness were measured in mice that underwent myopia induction for 3 weeks and ocular instillation of cromolyn solution or pemirolast potassium solution, as well as in control mice, and the amounts of changes therein were calculated (FIG. 7A, B, and C).

[2] = system: mice with LIM-induced myopia; experiment: Test Example 4: mast cell stabilizer vs histamine receptor antagonist instillation in mice with LIM-induced myopia; details: for choroidal thinning (change in choroidal thickness) / myopic shift in refraction (change in refractive value) / ocular elongation (change in axial length): eye drops, pemirolast potassium 0.1% solution, levocabastine 0.025% solution, vs control group
Method: as §1
Anti-allergic drugs are broadly divided into two types: mast cell stabilizers, which inhibit mast cell degranulation, and histamine receptor inhibitors, which inhibit the action of histamine secreted due to mast cell degranulation. In order to clarify whether the myopia suppression effect of the mast cell stabilizer instillation in Test Example 3 was due to the action of the anti-allergic drug or to the inhibition of mast cell degranulation, pemirolast potassium (0.1% solution) and levocabastine solution (0.025% solution) were administered as eye drops, respectively as a mast cell stabilizer and a histamine receptor inhibitor, to mice with LIM-induced myopia, and the myopia-suppressing effects were compared.

C57BL6J mice = experiment: Myopia suppression by IL-13 administration during the myopia induction period (minus lens); details: IL-13 during the myopia induction period
Method: as §1
Changes in blood flow were measured using swept-source optical coherence tomography (OCT S-1, Canon).

choroidal macrophages = experiment: M2 macrophage polarization in the choroid after IL-13 administration, flow cytometry; details: IL-13 during the myopia induction period
Method: The number of macrophages was measured using a flow cytometer (CytoFLEX S, Beckman Coulter) after digestion of the choroid and staining with F4/80 antibody and CD11b antibody. The number of M2 macrophages was measured in the same manner as for the measurement of the number of macrophages, except for the addition of a staining process with CD206 antibody.

[3] = system: M2 macrophage markers CD163 and CD206; experiment: M2 macrophage polarization in the choroid after IL-4 administration (Western blot, real-time PCR); details: IL-4 10 μg/kg BW intraperitoneally
Method: Therefore, IL-4, which is a cytokine necessary for M2 macrophage polarization, was administered to mice, and whether M2 polarization would occur in the choroid was evaluated by means of analyzing the expression levels of M2 macrophage markers CD163 and CD206 (FIG. 3A and B).
C57BL6J mice (n=4 per group) were intraperitoneally administered 0.1 μg/100 μl (10 μg/kg BW) of IL-4 solution. Choroid, retina, and liver samples were taken at 0 hours (before administration) as well as 4, 24, and 48 hours after administration, and the expression of M2 macrophage marker genes was analyzed by Western blot and real-time PCR (FIG. 3). In addition, choroid and retina samples were collected at 0 hours (before administration) as well as 4 and 24 hours after administration, and the expression of oxidative-stress-related genes was analyzed by real-time PCR (FIG. 4).

[4] = system: C57BL6 mice undergoing myopia induction; experiment: Myopia suppression by IL-4 administration in mice undergoing myopia induction (-30 D lens); details: IL-4 10 μg/kg BW intraperitoneally for 3 weeks
Method: as §1
Additionally, IL-4 was administered to mice undergoing myopia induction to evaluate whether there is a myopia suppression effect (FIG. 4).
C57BL6 mice undergoing myopia induction (−30 D lens, n=4) were intraperitoneally administered 0.1 μg/100 μl (10 μg/kg BW) of IL-4 solution for 3 weeks. C57BL6J mice undergoing myopia induction (0 D lens, −30 D lens, n=4 per group) were used as control groups.

| Molecule | progression of myopia [1] | choroidal thinning (change in choroidal thickness) [1] | myopic shift in refraction (change in refractive value) [1] | ocular elongation (change in axial length) [1] | choroidal thinning (change in choroidal thickness) [2] | myopic shift in refraction (change in refractive value) [2] | ocular elongation (change in axial length) [2] | also measured |
| --- | --- | --- | --- | --- | --- | --- | --- | --- |
| O=C(O)c1cc(=O)c2c(OCC(O)COc3cccc4oc(C(=O)O)cc(=O)c34)cccc2o1 [cromolyn, cromolyn sodium] | suppression | not observed | not observed | not observed |  |  |  |  |
| Cc1cccn2c(=O)c(-c3nnn[nH]3)cnc12 [pemirolast potassium] | suppression | not observed | not observed | not observed | not observed | not observed | not observed |  |
| IL-13: a cytokine that causes M2 polarization of macrophages |  |  |  |  |  |  |  | choroidal thinning (C57BL6J mice): suppressed; minus-lens-induced ocular elongation (C57BL6J mice): suppressed; myopic shift in refraction (C57BL6J mice): suppressed; M2 macrophage polarization (choroidal macrophages): induced |
| C[C@@H]1CN([C@H]2CC[C@](C#N)(c3ccc(F)cc3)CC2)CC[C@]1(C(=O)O)c1ccccc1 [levocabastine] |  |  |  |  | observed | observed | observed | progression of myopia ([2]; ocular instillation, mice undergoing myopia induction by fitting a minus lens): not suppressed |
| IL-4: a cytokine necessary for M2 macrophage polarization (protein, UniProt P05112 25-153, looked up) Interleukin-4: HKCDITLQEIIKTLNSLTEQKTLCTELTVTDIFAASKNTTEKETFCRAATVLRQFYSHHEKDTRCLGATAQQFHRHKQLIRFLKRLDRNLWGLAGLNSCPVKEANQSTLENFLERLKTIMREKYSKCSS |  |  |  |  |  |  |  | expression of M2 markers CD163 and CD206 in the choroid ([3]; 0, 4, 24, 48 hours): increased the expression; M2 macrophage polarization ([3]; choroid): confirmed; expression of oxidative-stress-related genes ([3]; choroid and retina, 0, 4, 24 hours, real-time PCR): suppressed expression; expression of M2 macrophage marker genes ([3]; gene expression analysis): increased expression; choroidal thinning [4]: suppresses; ocular elongation [4]: suppresses; refractive loss [4]: suppresses |
